Reference: ChEMBL document CHEMBL4808193, “[11]-Chaetoglobosins from Pseudeurotium bakeri Induce G2/M Cell Cycle Arrest and Apoptosis in Human Cancer Cells” (J Nat Prod, 2021)
Activity calls are given as the source filed them. The calls are words filed in the database; no cut-off is given here.

Assays:
A-427 [1] = assay: Cell cycle arrest in human A-427 cells assessed as accumulation at G0/G1 phase at 3.75 uM measured after 24 hrs by PI staining based flow cytometry (reference value: 52.93%); type: functional
A-427 [2] = assay: Cell cycle arrest in human A-427 cells assessed as accumulation at G0/G1 phase at 5 uM measured after 24 hrs by PI staining based flow cytometry (reference value: 52.93%); type: functional
HCT-116 = assay: Cytotoxicity against human HCT-116 cells assessed as reduction in cell viability by MTT assay; type: functional, cell-based
MCF7 [3] = assay: Induction of apoptosis in human MCF7 cells assessed as early apoptotic cells at 7.5 uM measured after 24 hrs by Annexin V-FITC/propidium iodide staining based flow cytometric analysis (reference value: 4.82%); type: functional
MCF7 [4] = assay: Induction of apoptosis in human MCF7 cells assessed as late apoptotic cells at 10 uM measured after 24 hrs by Annexin V-FITC/propidium iodide staining based flow cytometric analysis (reference value: 1.11%); type: functional
A-427 [5] = assay: Induction of apoptosis in human A-427 cells assessed as early apoptotic cells at 3.75 uM measured after 24 hrs by Annexin V-FITC/propidium iodide staining based flow cytometric analysis (reference value: 4.98%); type: functional
A-427 [6] = assay: Induction of apoptosis in human A-427 cells assessed as late apoptotic cells at 5 uM measured after 24 hrs by Annexin V-FITC/propidium iodide staining based flow cytometric analysis (reference value: 3.18%); type: functional
MCF7 [7] = assay: Induction of apoptosis in human MCF7 cells assessed as late apoptotic cells at 7.5 uM measured after 24 hrs by Annexin V-FITC/propidium iodide staining based flow cytometric analysis (reference value: 1.11%); type: functional
MCF7 [8] = assay: Induction of apoptosis in human MCF7 cells assessed as early apoptotic cells at 5 uM measured after 24 hrs by Annexin V-FITC/propidium iodide staining based flow cytometric analysis (reference value: 4.82%); type: functional
MCF7 [9] = assay: Cell cycle arrest in human MCF7 cells assessed as accumulation at G2/M phase at 5 uM measured after 24 hrs by PI staining based flow cytometry (reference value: 15.13%); type: functional
L02 = assay: Cytotoxicity against human L02 cells assessed as reduction in cell viability by MTT assay; type: cell-based
MCF7 [10] = assay: Cell cycle arrest in human MCF7 cells assessed as accumulation at G0/G1 phase at 5 uM measured after 24 hrs by PI staining based flow cytometry (reference value: 60.23%); type: functional
MCF7 [11] = assay: Induction of apoptosis in human MCF7 cells assessed as increase in cytochrome c level at 5 to 10 uM incubated for 24 hrs by Western blot analysis; type: functional, cell-based; details: dose 5-10 µM
A-427 [12] = assay: Induction of apoptosis in human A-427 cells assessed as early apoptotic cells at 5 uM measured after 24 hrs by Annexin V-FITC/propidium iodide staining based flow cytometric analysis (reference value: 4.98%); type: functional
MCF7 [13] = assay: Induction of apoptosis in human MCF7 cells assessed as late apoptotic cells at 5 uM measured after 24 hrs by Annexin V-FITC/propidium iodide staining based flow cytometric analysis (reference value: 1.11%); type: functional
A-427 [14] = assay: Cell cycle arrest in human A-427 cells assessed as accumulation at G2/M phase at 5 uM measured after 24 hrs by PI staining based flow cytometry (reference value: 19.81%); type: functional
MCF7 [15] = assay: Cell cycle arrest in human MCF7 cells assessed as accumulation at S phase at 7.5 uM measured after 24 hrs by PI staining based flow cytometry (reference value: 24.64%; type: functional
MCF7 [16] = assay: Cell cycle arrest in human MCF7 cells assessed as accumulation at G0/G1 phase at 10 uM measured after 24 hrs by PI staining based flow cytometry (reference value: 60.23%); type: functional
MCF7 [17] = assay: Cell cycle arrest in human MCF7 cells assessed as accumulation at G2/M phase at 7.5 uM measured after 24 hrs by PI staining based flow cytometry (reference value: 15.13%); type: functional
MCF7 [18] = assay: Cell cycle arrest in human MCF7 cells assessed as accumulation at S phase at 10 uM measured after 24 hrs by PI staining based flow cytometry (reference value: 24.64%); type: functional
HT-29 = assay: Cytotoxicity against human HT-29 cells assessed as reduction in cell viability by MTT assay; type: functional, cell-based
A-427 [19] = assay: Cell cycle arrest in human A-427 cells assessed as accumulation at G2/M phase at 3.75 uM measured after 24 hrs by PI staining based flow cytometry (reference value: 19.81%); type: functional
MCF7 [20] = assay: Cell cycle arrest in human MCF7 cells assessed as accumulation at S phase at 5 uM measured after 24 hrs by PI staining based flow cytometry (reference value: 24.64%); type: functional
HeLa = assay: Cytotoxicity against human HeLa cells assessed as reduction in cell viability by MTT assay; type: functional, cell-based
A-427 [21] = assay: Cell cycle arrest in human A-427 cells assessed as accumulation at S phase at 2.5 uM measured after 24 hrs by PI staining based flow cytometry (reference value: 27.27%); type: functional
MCF7 [22] = assay: Induction of apoptosis in human MCF7 cells assessed as increase in Bax protein level at 5 to 10 uM incubated for 24 hrs by Western blot analysis; type: functional, cell-based; details: dose 5-10 µM
A-427 [23] = assay: Induction of apoptosis in human A-427 cells assessed as early apoptotic cells at 2.5 uM measured after 24 hrs by Annexin V-FITC/propidium iodide staining based flow cytometric analysis (reference value: 4.98%); type: functional
MCF7 [24] = assay: Induction of apoptosis in human MCF7 cells assessed as increase in cleaved caspase 3 level at 5 to 10 uM incubated for 24 hrs by Western blot analysis; type: functional, cell-based; details: dose 5-10 µM
A-427 [25] = assay: Induction of apoptosis in human A-427 cells assessed as late apoptotic cells at 2.5 uM measured after 24 hrs by Annexin V-FITC/propidium iodide staining based flow cytometric analysis (reference value: 3.18%); type: functional
MCF7 [26] = assay: Cell cycle arrest in human MCF7 cells assessed as accumulation at G2/M phase at 10 uM measured after 24 hrs by PI staining based flow cytometry (reference value: 15.13%); type: functional
MCF7 [27] = assay: Induction of apoptosis in human MCF7 cells assessed as increase in PARP level at 5 to 10 uM incubated for 24 hrs by Western blot analysis; type: functional, cell-based; details: dose 5-10 µM
A-427 [28] = assay: Cell cycle arrest in human A-427 cells assessed as accumulation at S phase at 5 uM measured after 24 hrs by PI staining based flow cytometry (reference value: 27.27%); type: functional
HepG2 = assay: Cytotoxicity against human HepG2 cells assessed as reduction in cell viability by MTT assay; type: functional, cell-based
MCF7 [29] = assay: Cytotoxicity against human MCF7 cells assessed as reduction in cell viability by MTT assay; type: functional, cell-based
MCF7 [30] = assay: Cell cycle arrest in human MCF7 cells assessed as accumulation at G0/G1 phase at 7.5 uM measured after 24 hrs by PI staining based flow cytometry (reference value: 60.23%); type: functional
A-427 [31] = assay: Cell cycle arrest in human A-427 cells assessed as accumulation at G2/M phase at 2.5 uM measured after 24 hrs by PI staining based flow cytometry (reference value: 19.81%); type: functional
A-427 [32] = assay: Cell cycle arrest in human A-427 cells assessed as accumulation at S phase at 3.75 uM measured after 24 hrs by PI staining based flow cytometry (reference value: 27.27%); type: functional
MCF7 [33] = assay: Induction of apoptosis in human MCF7 cells assessed as increase in cleaved PARP level at 5 to 10 uM incubated for 24 hrs by Western blot analysis; type: functional, cell-based; details: dose 5-10 µM
A-427 [34] = assay: Cell cycle arrest in human A-427 cells assessed as accumulation at G0/G1 phase at 2.5 uM measured after 24 hrs by PI staining based flow cytometry (reference value: 52.93%); type: functional
A-427 [35] = assay: Cytotoxicity against human A-427 cells assessed as reduction in cell viability by MTT assay; type: functional, cell-based
A549 = assay: Cytotoxicity against human A549 cells assessed as reduction in cell viability by MTT assay; type: functional, cell-based
A-427 [36] = assay: Induction of apoptosis in human A-427 cells assessed as late apoptotic cells at 3.75 uM measured after 24 hrs by Annexin V-FITC/propidium iodide staining based flow cytometric analysis (reference value: 3.18%); type: functional
MCF7 [37] = assay: Induction of apoptosis in human MCF7 cells assessed as early apoptotic cells at 10 uM measured after 24 hrs by Annexin V-FITC/propidium iodide staining based flow cytometric analysis (reference value: 4.82%); type: functional

## CC1=C[C@@H]2/C=C/C[C@H](C)CC/C=C\C(=O)[C@]23C(=O)N[C@@H](Cc2c[nH]c4ccccc24)[C@@H]3[C@@H]1C
A-427 [1]
  Activity: 13.13%
A-427 [2]
  Activity: 11.04%
HCT-116
  IC50: 8 µM
MCF7 [3]
  Activity: 19.53%
MCF7 [4]
  Activity: 7.12%
A-427 [5]
  Activity: 15.57%
A-427 [6]
  Activity: 22.56%
MCF7 [7]
  Activity: 6.76%
MCF7 [8]
  Activity: 11.86%
MCF7 [9]
  Activity: 42.22%
L02
  IC50: 44.1 µM
MCF7 [10]
  Activity: 44.64%
MCF7 [11]
  Activity: Active
A-427 [12]
  Activity: 20.14%
MCF7 [13]
  Activity: 4.68%
A-427 [14]
  Activity: 71.12%
MCF7 [15]
  Activity: 18.43%
MCF7 [16]
  Activity: 28.08%
MCF7 [17]
  Activity: 48.75%
MCF7 [18]
  Activity: 12.37%
HT-29
  IC50: 6.7 µM
A-427 [19]
  Activity: 67.84%
MCF7 [20]
  Activity: 13.15%
HeLa
  IC50: 7.1 µM
A-427 [21]
  Activity: 21.83%
MCF7 [22]
  Activity: Active
A-427 [23]
  Activity: 11.53%
MCF7 [24]
  Activity: Active
A-427 [25]
  Activity: 3.07%
MCF7 [26]
  Activity: 59.55%
MCF7 [27]
  Activity: Active
A-427 [28]
  Activity: 17.84%
HepG2
  IC50: 9.1 µM
MCF7 [29]
  IC50: 6.2 µM
MCF7 [30]
  Activity: 32.82%
A-427 [31]
  Activity: 62.86%
A-427 [32]
  Activity: 19.02%
MCF7 [33]
  Activity: Active
A-427 [34]
  Activity: 15.31%
A-427 [35]
  IC50: 4.7 µM
A549
  IC50: 8.2 µM
A-427 [36]
  Activity: 24.36%
MCF7 [37]
  Activity: 25.44%
